Experimental data taken from patent US20200140826A1, “Maintenance and Expansion of Pancreatic Progenitor Cells” (AGENCY FOR SCIENCE, TECHNOLOGY AND RESEARCH, priority 2017, published 2020).

Assays:
cPP cells [1] = assay: Omission of individual components from complete cPP culture medium on 3T3-J2 feeders (phase contrast, qRT-PCR); format: cell-based, human; conditions: for Effect of removing the component on cPP expansion, colony size and morphology: component individually omitted from complete medium, cPP cells cultured 6 days on 3T3-J2 feeders
Protocol: Gentle cell dissociation reagent (STEMCELL Technologies, 07174) was used to passage cPP cells as aggregates that were then seeded at a 1:6 split ratio onto a layer of 3T3-J2 feeders (0.5×10^6 to 1×10^6 cells/cm^2) in medium composed of advanced DMEM/F12 (Thermo Fisher Scientific, 21634010), 2 mM L-glutamine (Thermo Fisher Scientific, 25030), 100 U/mL penicillin/streptomycin (Thermo Fisher Scientific, 15140122), 1× N2 supplement (Thermo Fisher Scientific, 17502-048), 1× B27 supplement (Thermo Fisher Scientific, 17504-044), 30 nM dexamethasone (STEMCELL Technologies, 72092), 50 ng/mL EGF (R&D Systems, 236-EG-200), 50 ng/mL FGF10 (Source Bioscience, ABC144), 3 μM RA (Sigma, R2625), 10 μM SB431542 (Calbiochem, 616464), and 1 μM DAPT (Sigma, D5942). If plating single cPP cells, complete medium was supplemented with 10 μM Y27632 for the first 48 hr (Sigma, Y0503). Medium was completely replenished every 2-3 days.
RNA was isolated from samples using an RNeasy mini kit (Qiagen, cat # 74104) and reverse transcribed to generate cDNA using a high-capacity reverse transcription kit and random hexamer primers (Applied Biosystems, 4368814,1 μg RNA per 20 μL reaction). Quantitative RT-PCR was carried out using SYBR Select Mastermix (Applied Biosystems, 4472908). Data were analyzed using the ΔΔCT method, and normalized to expression of the housekeeping gene TBP in each sample.
To establish the roles played by the growth factors and small molecules in our culture media, each was removed individually and the effect on differentiation and proliferation was assessed.

cPP cells [2] = assay: Microbioreactor array (MBA) screening of cPP maintenance and proliferation; format: cell-based, human; conditions: relatively low concentration (1 μM) in cPP culture medium
Protocol: Microbioreactor arrays were used to screen the effects of combinations of exogenous signaling molecules on cPP cells. MBAs provide combinatorial mixing of input factors, combined with continuous flow of culture media over culture chambers. MBAs were autoclaved and filled with sterile PBS, then coated (2-4 h, room temperature) with a single 1 mL injection of hESC-qualified matrigel at the manufacturer's recommended concentration. cPP cells in suspension in complete medium at 5×10^6/mL were then seeded in the MBA, giving a surface density of 50×10^6cells/cm^2. Cells were allowed to attach for a total of 20 h, with a media exchange performed every 6 h. […] Nuclear segmentation and quantification of nuclear intensities of PDX1 and SOX9 then proceeded similarly as previously described.
To quantify the effect of exogenous signaling molecules on the maintenance and expansion of cPP cells, this study used a microbioreactor array (MBA) screening platform to measure differentiation and proliferation. […] The study then used an image-segmentation algorithm to identify individual nuclei and quantify immunofluorescence staining for PDX1 and SOX9, thereby enabling the determination of the percentage of double-positive cells following exposure to different growth factor regimes. […]

Molecule: C[C@H](NC(=O)Cc1cc(F)cc(F)c1)C(=O)N[C@H](C(=O)OC(C)(C)C)c1ccccc1 [DAPT]
- Effect of removing the component on cPP expansion, colony size and morphology (cPP cells [1]): did not significantly affect colony size or morphology in the short term
- Effect of removing the component on viability (cPP cells [1]; component removed from the culture media over multiple passages): noticeable loss of viability
- Effect on proliferation of cPP cells (cPP cells [2]): promotes proliferation of cPP cells

Molecule: NC(=O)c1ccc(-c2nc(-c3ccc4c(c3)OCO4)c(-c3ccccn3)[nH]2)cc1 [SB431542]
- Effect of removing the component on cPP expansion, colony size and morphology (cPP cells [1]): caused colonies to detach from the feeder layer

Molecule: EGF: epidermal growth factor, growth factor in the cPP culture medium (50 ng/mL) (NSDSECPLSHDGYCLHDGVCMYIEALDKYACNCVVGYIGERCQYRDLKWWELR; Epidermal growth factor; UniProt P01133 971-1023, looked up)
- Effect of removing the component on cPP expansion, colony size and morphology (cPP cells [1]): prevented cPP expansion
